Results taken from the Deep4Chem optical property database.
Values belong to the molecule of their own block, whether it stands above or below them.

Assay: photoluminescence quantum yield (fraction); solvent given as SMILES
[1] = in c1ccc2c(c1)c1ccccc1n2-c1ccc(-c2ccc(-n3c4ccccc4c4ccccc43)cc2)cc1

SMILES: O=C(c1ccc(N2c3ccccc3Sc3ccccc32)cc1)c1ccc2sc3ccccc3c2c1
photoluminescence quantum yield (in C1CCOC1): 0.005
photoluminescence quantum yield [1]: 0.768

SMILES: c1csc(-c2cnc(-c3cccs3)c3nonc23)c1
photoluminescence quantum yield (in C1CCCCC1): 0.54
photoluminescence quantum yield (in CC(C)=O): 0.39
photoluminescence quantum yield (in CCCCCC): 0.54
photoluminescence quantum yield (in CCCO): 0.22
photoluminescence quantum yield (in CCO): 0.19
photoluminescence quantum yield (in CCOCC): 0.52
photoluminescence quantum yield (in CO): 0.15
photoluminescence quantum yield (in Cc1ccccc1): 0.35
photoluminescence quantum yield (in ClC(Cl)(Cl)Cl): 0.43
photoluminescence quantum yield (in ClC(Cl)Cl): 0.35
photoluminescence quantum yield (in O=[N+]([O-])c1ccccc1): 0.2
photoluminescence quantum yield (in OCC(O)CO): 0.03
photoluminescence quantum yield (in OCc1ccccc1): 0.12
photoluminescence quantum yield (in c1ccc2ncccc2c1): 0.25
photoluminescence quantum yield (in c1ccccc1): 0.4
photoluminescence quantum yield (in c1ccncc1): 0.23

SMILES: Cc1ccc2c(c1)nnn2-c1c(C#N)c2c(N)ncnc2n1[C@H]1C[C@H](O)[C@@H](CO)O1
photoluminescence quantum yield (in CO): 0.007

SMILES: CC(C)CCC[C@@H](C)[C@H]1CC[C@H]2[C@@H]3CC=C4C[C@@H](OC(=O)Oc5cc(/C=C/c6ccc(N(C)C)cc6)ccc5[N+](=O)[O-])CC[C@]4(C)[C@H]3CC[C@]12C
photoluminescence quantum yield (in C1CCCCC1): 0.29
photoluminescence quantum yield (in C1COCCO1): 0.09
photoluminescence quantum yield (in CCCCCCC): 0.29
photoluminescence quantum yield (in Cc1ccccc1): 0.18

SMILES: CC(C)(C)c1ccc(-c2cc3c(-c4ccc(C(C)(C)C)cc4)c4cccc5c(-c6ccc(C(C)(C)C)cc6)cc6c(-c7ccc(C(C)(C)C)cc7)c7cccc2c7c3c6c54)cc1
photoluminescence quantum yield (in C1CCCCC1): 0.23
photoluminescence quantum yield (in CC#N): 0.2
photoluminescence quantum yield (in CO): 0.21
photoluminescence quantum yield (in Cc1ccccc1): 0.41
photoluminescence quantum yield (in ClCCl): 0.27

SMILES: CCN(CC)c1ccc(/C=N/Nc2ccc(C#N)cc2)c(O)c1
photoluminescence quantum yield (in CO): 0.21

SMILES: COc1ccc2c(c1)c1cc(OC)ccc1n2-c1ccc2c(c1)-c1cc(-n3c4ccc(OC)cc4c4cc(OC)ccc43)ccc1P2(=O)c1ccccc1
photoluminescence quantum yield (in Cc1ccccc1): 0.79
photoluminescence quantum yield [1]: 0.78

SMILES: N#Cc1cnc(-c2c3ccccc3c(-c3ncc(C#N)cn3)c3ccccc23)nc1
photoluminescence quantum yield (in CCO): 0.16
photoluminescence quantum yield (in ClCCl): 0.54

SMILES: S=P1(c2ccccc2)C(c2ccccc2)=Cc2cc3ccccc3cc21 (configuration not stated)
photoluminescence quantum yield (in ClCCl): 0.001

SMILES: Cc1ccc(/C=C(\c2ccccc2)c2nc3ccccc3o2)cc1
photoluminescence quantum yield (in C1CCCCC1): 0.008
photoluminescence quantum yield (in CO): 0.004

SMILES: COc1ccccc1C1=C2C(C)=CC(C)=[N+]2[B-](F)(F)n2c(C)cc(C)c21
photoluminescence quantum yield (in C1CCOC1): 0.87
photoluminescence quantum yield (in CC#N): 0.57
photoluminescence quantum yield (in CC(=O)C(C)(C)C): 0.74
photoluminescence quantum yield (in CC(C)=O): 0.78
photoluminescence quantum yield (in CCCCCC): 0.98
photoluminescence quantum yield (in CCOC(C)=O): 0.76
photoluminescence quantum yield (in CO): 0.69

SMILES: Cc1cc(/N=C/c2cc(S(=O)(=O)[O][Na])ccc2O)c(/N=C/c2cc(S(=O)(=O)[O][Na])ccc2O)cc1C
photoluminescence quantum yield (in O): 0.56

SMILES: O=P1(c2ccccc2)C(c2ccc(C(F)(F)F)cc2)=Cc2cc3ccccc3cc21 (configuration not stated)
photoluminescence quantum yield (in ClCCl): 0.42

SMILES: CC1(C)CC(NCc2ccc3ccc4cccc5ccc2c3c45)CC(C)(C)N1
photoluminescence quantum yield (in C1CCCCC1): 0.55
photoluminescence quantum yield (in CC#N): 0.04
photoluminescence quantum yield (in CO): 0.14
photoluminescence quantum yield (in ClC(Cl)Cl): 0.08

SMILES: CC(C)(C)c1ccc(C#Cc2c(C#Cc3ccc(C(C)(C)C)cc3)c3cccc4c(C#Cc5ccc(C(C)(C)C)cc5)c(C#Cc5ccc(C(C)(C)C)cc5)c5cccc2c5c34)cc1
photoluminescence quantum yield (in ClCCl): 0.7

SMILES: Cc1nc2c(ccc3ccccc32)oc1=O
photoluminescence quantum yield (in c1ccccc1): 0.198

SMILES: c1ccc(N(c2ccccc2)c2ccc(-c3ccc(-c4ccc(-c5ccc(-c6ccc(N(c7ccccc7)c7ccccc7)cc6)s5)c5nsnc45)s3)cc2)cc1
photoluminescence quantum yield (in ClC(Cl)Cl): 0.23

SMILES: N#Cc1c(C#N)c2cc(Br)ccc2c2ccc(Br)cc12
photoluminescence quantum yield (in ClC(Cl)Cl): 0.01

SMILES: COc1ccc(-c2nc(-c3ccc(OC)cc3)c(-c3ccc(OC)cc3)[nH]2)cc1
photoluminescence quantum yield (in CO): 0.2

SMILES: F[Si](c1ccccc1)(c1c2ccccc2cc2ccccc12)c1c2ccccc2cc2ccccc12
photoluminescence quantum yield (in C1CCOC1): 0.17

SMILES: CC1=CC(C)=[N+]2C1=C(c1c(-c3ccccn3)nc3ccccn13)c1c(C)cc(C)n1[B-]2(F)F
photoluminescence quantum yield (in ClCCl): 0.635

SMILES: F[B-]1(F)OC(/C=C/c2ccccc2)=CC(c2ccccc2)=[O+]1
photoluminescence quantum yield (in ClCCl): 0.02

SMILES: c1ccc(-c2ccnc(-c3ccccc3)n2)cc1
photoluminescence quantum yield (in ClC(Cl)Cl): 0.51

SMILES: CC1=CC(C)=[N+]2C1=C(c1ccccc1)c1c(C)cc(/C=C/c3ccc(O)cc3)n1[B-]2(F)F
photoluminescence quantum yield (in O): 0.37

SMILES: c1ccc(-c2nc(-c3ccccc3)nc(-n3c4ccccc4c4cc(-n5c6ccccc6c6ccccc65)cc(-n5c6ccccc6c6ccccc65)c43)n2)cc1
photoluminescence quantum yield (in O=P(c1ccccc1)(c1ccccc1)c1ccccc1Oc1ccccc1P(=O)(c1ccccc1)c1ccccc1): 0.85

SMILES: CC(C)(C)c1ccc2c(c1)c1cc(C(C)(C)C)ccc1n2-c1ccc(-n2c3ccc(C(C)(C)C)cc3c3cc(C(C)(C)C)ccc32)c(-c2nccnc2C#N)c1
photoluminescence quantum yield (in Cc1ccccc1): 0.05
photoluminescence quantum yield (in c1cc(-n2c3ccccc3c3ccccc32)cc(-n2c3ccccc3c3ccccc32)c1): 0.44

SMILES: CC(C)c1cc(C(C)C)c(B2c3cc(N4c5ccccc5C(C)(C)c5ccccc54)ccc3N(c3ccccc3)c3ccc(N4c5ccccc5C(C)(C)c5ccccc54)cc32)c(C(C)C)c1
photoluminescence quantum yield (in c1cc(-c2cccc(-n3c4ccccc4c4ccccc43)c2)cc(-n2c3ccccc3c3ccccc32)c1): 0.95

SMILES: CCCC1=Cc2nc1ccc1[nH]c(cc1CCC)c1nc(c(NC(C)=O)cc3[nH]c2cc3CCC)C(CCC)=C1
photoluminescence quantum yield (in Cc1ccccc1): 0.1

SMILES: c1ccc(-c2nc(-c3ccc(N4c5ccccc5C(c5ccccc5)(c5ccccc5)c5ccccc54)cc3)cc(-c3ccc(N4c5ccccc5C(c5ccccc5)(c5ccccc5)c5ccccc54)cc3)n2)cc1
photoluminescence quantum yield (in Cc1ccccc1): 0.5
photoluminescence quantum yield (in O=P(c1ccccc1)(c1ccccc1)c1ccc2oc3ccc(P(=O)(c4ccccc4)c4ccccc4)cc3c2c1): 0.94

SMILES: c1ccc(-c2nc(-c3cccc4ccccc34)n3ccccc23)cc1
photoluminescence quantum yield (in ClCCl): 0.125

SMILES: COc1ccc(C(=O)OCc2ccc3c4cccc5cccc(c6cccc2c63)c54)cc1
photoluminescence quantum yield (in CCO): 0.93

SMILES: COc1ccc(-n2cccc2)cc1
photoluminescence quantum yield (in CC#N): 0.33
photoluminescence quantum yield (in CCCCCC): 0.26

SMILES: Brc1ccc(-c2pc3ccccc3s2)cc1 (configuration not stated)
photoluminescence quantum yield (in CC#N): 0.032

SMILES: Cc1cc(C)nc(N)n1
photoluminescence quantum yield (in CCO): 0.15
photoluminescence quantum yield (in CO): 0.248
photoluminescence quantum yield (in O): 0.048

SMILES: COc1ccc(C2=C3C(C)=CC(C=Cc4ccc(C(=O)OC5C[C@H]6CCC5(C)C6(C)C)cc4)=[N+]3[B-](F)(F)n3c(C)cc(C)c32)cc1 (some centres not stated)
photoluminescence quantum yield (in Cc1ccccc1): 0.41

SMILES: COC(=O)c1ccc(/C=C2\N=C(c3ccc([N+](=O)[O-])cc3)NC2=O)cc1
photoluminescence quantum yield (in C1COCCO1): 0.258

SMILES: COc1ccc(C2=C(c3ccc(OC)cc3)C(C)(C)c3ccccc32)cc1
photoluminescence quantum yield (in C1CCCCC1): 0.09

SMILES: O=C1NC(=O)C(c2c[nH]c3ccccc23)=C1c1c[nH]c2ccccc12
photoluminescence quantum yield (in C1CCOC1): 0.24
photoluminescence quantum yield (in CC#N): 0.1
photoluminescence quantum yield (in CC(C)OC(C)C): 0.28
photoluminescence quantum yield (in CCCCOCCCC): 0.22
photoluminescence quantum yield (in CCO): 0.003
photoluminescence quantum yield (in CCOC(C)=O): 0.21
photoluminescence quantum yield (in CN(C)C=O): 0.13
photoluminescence quantum yield (in Cc1ccccc1): 0.28
photoluminescence quantum yield (in ClCCl): 0.21

SMILES: CCCCCCCCN1c2ccc(C#Cc3ccc(OC)cc3)cc2Sc2cc(C=O)ccc21
photoluminescence quantum yield (in C1CCOC1): 0.54
photoluminescence quantum yield (in CC#N): 0.34
photoluminescence quantum yield (in CCCCCC): 0.59
photoluminescence quantum yield (in CO): 0.07
photoluminescence quantum yield (in CS(C)=O): 0.91
photoluminescence quantum yield (in Cc1ccccc1): 0.49
photoluminescence quantum yield (in ClC(Cl)Cl): 0.58

The remaining lines, values ahead:

photoluminescence quantum yield (in C1CCCCC1): 0.31
photoluminescence quantum yield (in CCOC(C)=O): 0.05
SMILES: CC1=[N+]2C(=C(NC(C)c3ccccc3)c3ccc(C)n3[B-]2(F)F)C=C1c1cc2n(c1)[B-](F)(F)[N+]1=CC=CC1=C2c1c(C)cc(C)cc1C (configuration not stated)

photoluminescence quantum yield (in ClCCl): 0.00354
SMILES: COC(=O)C1=C(C(=O)OC)C2(c3ccccc3-c3ccccc32)[C@@H](c2ccccc2)C=C2c3cc(OC)c(OC)cc3CCN21

photoluminescence quantum yield (in CN(C)C=O): 0.91
SMILES: NCCCCCCCCCCCCN1C(=O)c2ccc3c4ccc5c6c(ccc(c7ccc(c2c37)C1=O)c64)C(=O)N(c1ccc(O)cc1)C5=O

photoluminescence quantum yield (in CC#N): 0.1
SMILES: CC1=[N+]2C(=C(c3ccccc3)c3c4c(c(C)n3[B-]2(F)F)CCc2ccccc2-4)C2=C1CCc1ccccc12

photoluminescence quantum yield (in CS(C)=O): 0.83
SMILES: Cc1ccc(C2C3=C(CCCC3=O)Nc3c2c(=O)oc2ccccc32)cc1 (configuration not stated)

photoluminescence quantum yield (in CCO): 0.28
photoluminescence quantum yield (in ClCCl): 0.85
SMILES: Ic1ccc(-c2c3ccc(=[N+]4CCCCC4)cc-3oc3cc(N4CCCCC4)ccc23)cc1

photoluminescence quantum yield (in ClC(Cl)Cl): 0.39
SMILES: CCCCCCCCCCCCOc1cc2c3c(ccc4c5c(SCCCCCCCCCCCC)cc6c7c(ccc(c1c34)c75)C(=O)N(C1CCCCC1)C6=O)C(=O)N(C1CCCCC1)C2=O

photoluminescence quantum yield (in ClCCl): 0.17
SMILES: CCCCN(CCCC)c1ccc(C#Cc2cc(C#Cc3c(F)c(F)c(F)c(F)c3F)c(C#Cc3c(F)c(F)c(F)c(F)c3F)cc2C#Cc2ccc(N(CCCC)CCCC)cc2)cc1

photoluminescence quantum yield (in ClCCl): 0.209
SMILES: O=c1cc(-c2nc3ccccn3c2NC2CCCCC2)occ1OCc1ccccc1

photoluminescence quantum yield (in CCC(C)C): 0.16
SMILES: CCCCCCCCCCc1cc(-c2cc(CCCCCCCCCC)c(-c3cccs3)s2)sc1-c1cccs1

photoluminescence quantum yield (in ClCCl): 0.14
SMILES: O=C(c1sc(-c2ccc(-c3cc(-c4cccs4)c(C(=O)N4CCOCC4)s3)s2)cc1-c1cccs1)N1CCOCC1

photoluminescence quantum yield (in ClCCl): 0.64
SMILES: CC(C)c1cccc(C(C)C)c1N1C(=O)c2cccc3c(Oc4ccc(Cl)cc4)ccc(c23)C1=O

photoluminescence quantum yield (in CS(C)=O): 0.075
SMILES: CCOC(=O)C1=C(N)n2c(=O)c3ccccc3c(=O)n2C1c1cccs1 (configuration not stated)

photoluminescence quantum yield (in ClCCl): 0.42
SMILES: CN(C)c1ccc(C#Cc2cc(C#Cc3ccc(C(F)(F)F)cc3)c3ccc4c(C#Cc5ccc(C(F)(F)F)cc5)cc(C#Cc5ccc(N(C)C)cc5)c5ccc2c3c54)cc1

photoluminescence quantum yield (in CCO): 0.06
SMILES: CCOC(=O)c1cc(C(=O)NCc2ccccc2)c2ccc(N(C)C)cc2n1

photoluminescence quantum yield (in C1CCCCC1): 0.11
SMILES: CCCCCCCCOc1ccc(C2=C(c3ccc(OCCCCCCCC)cc3)C(C)(C)c3ccccc32)cc1

photoluminescence quantum yield (in ClCCl): 0.092
SMILES: CC(C)(C)c1cc(-c2ccc(-c3cccs3)s2)c2c(c1)c1cc(C(C)(C)C)cc(-c3ccc(-c4cccs4)s3)c1n2-c1ccc(-c2cccs2)s1
